Data as given in patent US20260109699A1, “AZOLE DERIVATIVES AS SHP2 INHIBITORS” (IRBM S.P.A., priority 2022, published 2026).

Key:
[1] = target: T1, SHP-2 enzyme (Met1-Leu525), SHP2wt (Homo sapiens, UniProt Q06124); assay: SHP2 inhibition enzymatic assay; assay type: biochemical; conditions: 0.5 nM SHP-2 activated by 500 nM IRS1 peptide, 75 μM DiFMUP substrate
T1 construct: synthetized by Origene, Met1-Leu525, cat #TP750155; purchased Origene TP750155
T1 sequence (Q06124 1-525): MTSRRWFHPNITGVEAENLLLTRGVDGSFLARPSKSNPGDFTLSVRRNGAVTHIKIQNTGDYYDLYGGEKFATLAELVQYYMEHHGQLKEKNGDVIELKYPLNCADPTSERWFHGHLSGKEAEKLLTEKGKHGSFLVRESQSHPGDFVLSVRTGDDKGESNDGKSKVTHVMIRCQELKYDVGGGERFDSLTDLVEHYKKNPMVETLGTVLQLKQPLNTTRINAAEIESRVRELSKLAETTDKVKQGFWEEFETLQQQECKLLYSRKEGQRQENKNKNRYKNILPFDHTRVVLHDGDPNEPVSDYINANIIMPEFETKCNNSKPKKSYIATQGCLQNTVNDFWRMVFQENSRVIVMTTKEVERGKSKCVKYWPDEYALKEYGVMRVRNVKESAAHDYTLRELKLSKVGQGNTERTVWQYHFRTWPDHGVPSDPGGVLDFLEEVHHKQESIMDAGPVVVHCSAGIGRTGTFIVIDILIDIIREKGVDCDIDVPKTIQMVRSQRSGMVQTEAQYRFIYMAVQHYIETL
Experimental: The assay was performed as described in YP Chen et al, Nature (535) 2016. Assay volume of 20 μL/well was assembled in 384 well black polystyrene low-binding microplates (Greiner), using the following buffer: 60 mM HEPES pH 7.2, 75 mM NaCl, 75 mM KCl, 1 mM EDTA pH 8, 0.05% tween-20, 5 mM DTT. The SHP-2 enzyme (synthetized by Origene, Met1-Leu525, cat #TP750155) was used at a final concentration of 0.5 nM. The enzyme was activated by 500 nM IRS1 peptide (sequence: H2N-LN(pY)IDLDLV(dPEG8)LST(pY)ASINFQK-amide; Wang et al., iScience 25,104009, Apr. 15, 2022, https://doi.org/10.1016/j.isci.2022.104009) and incubated with 75 μM DiFMUP (Sigma) as substrate.
Briefly, DMSO serially diluted testing compounds were transferred to the bottom of the assay plate. SHP2 was then added together with the IRS1 peptide 30 min post incubation, the DiFMUP substrate was added to the reaction and incubated 30 min at rt. Finally 5 μL of 160 μM bpV (potassium bisperoxo[1,10-phenanthroline]oxovanadate [V], Sigma) were added to stop and quench the reaction. The fluorescence was detected by a microplate reader (Envision, PerkinElmer) according to the DiFMUP excitation and emission wavelength. The lower the fluorescence the higher the SHP2 inhibition.
The activity of each compound dilution was calculated as percentage of inhibition between vehicle (DMSO, 0% inhibition) and no enzyme (100% inhibition). The percentage inhibition is fitted against the compound dilutions with a four-parameter logistic regression. The inflection point (i.e. the concentration at which half-maximal inhibition is achieved) is the IC50.
Legend: A indicates IC50 less or equal to 0.05 μM; B indicates IC50 greater than 0.05 μM and lower or equal to 0.3 μM.

[2] = test system: phospho-ERK1/2 (Thr202/Tyr204); assay: Phospho-ERK cellular assay; assay type: cell-based; conditions: Homo sapiens; KYSE-520 cells, 2 h at 37° C, TR-FRET; read-out: pERK IC50
Experimental: ERK phosphorylation was detected using the “Advanced phospho-ERK1/2 (Thr202/Tyr204)” TR-FRET kit (Cisbio, Cat #64AERPEG/H), following the manufacturer reagents and instructions.
Briefly, 20.000/well KYSE-520 cells (DSMZ ACC 371) were plated in 6 μL RPMI-1640 (Invitrogen) growth medium, into 384 white low-volume high base TC microplates (Greiner). After an overnight incubation, cells were treated with DMSO serial diluted compounds and incubated for 2 h at 37° C. After incubation, 2 μL/well of 4×Lysis Buffer (Cisbio 64KL1FDF), were added and incubated with cells for 30 min on gentle shaking. Finally, lysates were added with 2 μL/well of Eu cryptate (donor) and D2 (acceptor) conjugated antibodies (as provided by the Cisbio kit #64AERPEG/H) diluted 1:100 in Detection Buffer (as provided by the Cisbio kit #64AERPEG/H). Plates were then sealed and incubated at rt in the dark. After an overnight incubation, the TR-FRET signal was detected on a suitable reader (Envision, PerkinElmer).
The lower the TR-FRET signal the higher the higher the SHP2 inhibition in cells.
The activity of each compound dilution was calculated as percentage between vehicle DMSO treated cells and no cells, 0% inhibition and 100% inhibition respectively. The percentage activity is fitted against the compound dilutions with a four-parameter logistic regression. The inflection point (i.e. the concentration at which half-maximal inhibition is achieved) is the IC50.
Legend: “+” indicates IC50 equal or higher than 0.5 μM; “++” indicates IC50 less than 0.5 μM and higher or equal to 0.1 μM; “+++” indicates IC50 less than 0.1 μM.

Row | IC50 [1] | IC50 [2] | Structure (SMILES)
1 | ≤ 50 nM | 100 to 500 nM | N[C@@H]1c2ccnn2CC12CCN(c1cnc(Sc3cc(F)c(F)cc3F)cn1)CC2 [Example 77, (S)-1-(5-((2,4,5-trifluorophenyl)thio)pyrazin-2-yl)-4′H,6′H-spiro[piperidine-4,5′-pyrrolo[1,2-b]pyrazol]-4′-amine]
2 | ≤ 50 nM | < 100 nM | N[C@@H]1c2ccnn2CC12CCN(c1cnc(Sc3cc(F)ccc3F)cn1)CC2 [Example 48, (S)-1-(5-((2,5-difluorophenyl)thio)pyrazin-2-yl)-4′H,6′H-spiro[piperidine-4,5′-pyrrolo[1,2-b]pyrazol]-4′-amine]
3 | ≤ 50 nM | < 100 nM | N[C@@H]1c2ccnn2CC12CCN(c1cnc(Sc3ccc(F)cc3)cn1)CC2 [Example 13, (S)-1-(5-((4-fluorophenyl)thio)pyrazin-2-yl)-4′H,6′H-spiro[piperidine-4,5′-pyrrolo[1,2-b]pyrazol]-4′-amine]
4 | ≤ 50 nM | 100 to 500 nM | N[C@@H]1c2ccnn2CC12CCN(c1cnc(Sc3cccc(F)c3-n3cccn3)cn1)CC2 [Example 80, (S)-1-(5-((3-fluoro-2-(1H-pyrazol-1-yl)phenyl)thio)pyrazin-2-yl)-4′H,6′H-spiro[piperidine-4,5′-pyrrolo[1,2-b]pyrazol]-4′-amine]
5 | ≤ 50 nM | < 100 nM | N#Cc1cccc(Sc2cnc(N3CCC4(CC3)Cn3nccc3[C@H]4N)cn2)c1C(F)(F)F [Example 43, (S)-3-((5-(4′-amino-4′H,6′H-spiro[piperidine-4,5′-pyrrolo[1,2-b]pyrazol]-1-yl)pyrazin-2-yl)thio)-2-(trifluoromethyl)benzonitrile]
6 | ≤ 50 nM | > 500 nM | N[C@@H]1c2ccnn2CC12CCN(c1cnc3nc(-c4cccc(Cl)c4Cl)ccc3n1)CC2 [Example 9, (S)-1-(6-(2,3-dichlorophenyl)pyrido[2,3-b]pyrazin-2-yl)-4′H,6′H-spiro[piperidine-4,5′-pyrrolo[1,2-b]pyrazol]-4′-amine]
7 | ≤ 50 nM | 100 to 500 nM | Cc1c(Cl)cncc1Sc1cnc(N2CCC3(CC2)Cn2nccc2[C@H]3N)cn1 [Example 62, (S)-1-(5-((5-chloro-4-methylpyridin-3-yl)thio)pyrazin-2-yl)-4′H,6′H-spiro[piperidine-4,5′-pyrrolo[1,2-b]pyrazol]-4′-amine]
8 | ≤ 50 nM | < 100 nM | N#Cc1ccc(Sc2cnc(N3CCC4(CC3)Cn3nccc3[C@H]4N)cn2)c2cccnc12 [Example 66, (S)-5-((5-(4′-amino-4′H,6′H-spiro[piperidine-4,5′-pyrrolo[1,2-b]pyrazol]-1-yl)pyrazin-2-yl)thio)quinoline-8-carbonitrile]
9 | ≤ 50 nM | < 100 nM | N#Cc1ccc(Sc2cnc(N3CCC4(CC3)Cn3nccc3[C@H]4N)cn2)c(F)c1 [Example 76, (S)-4-((5-(4′-amino-4′H,6′H-spiro[piperidine-4,5′-pyrrolo[1,2-b]pyrazol]-1-yl)pyrazin-2-yl)thio)-3-fluorobenzonitrile]
10 | ≤ 50 nM | 100 to 500 nM | Cc1nc(N2CCC3(CC2)Cn2nccc2[C@H]3N)cnc1Sc1cccc(Cl)c1Cl [Example 6, (S)-1-(5-((2,3-dichlorophenyl)thio)-6-methylpyrazin-2-yl)-4′H,6′H-spiro[piperidine-4,5′-pyrrolo[1,2-b]pyrazol]-4′-amine]
11 | ≤ 50 nM | 100 to 500 nM | Cc1nc(Sc2cccc(Cl)c2Cl)cnc1N1CCC2(CC1)Cn1nccc1[C@H]2N [Example 17, (S)-1-(5-((2,3-dichlorophenyl)thio)-3-methylpyrazin-2-yl)-4′H,6′H-spiro[piperidine-4,5′-pyrrolo[1,2-b]pyrazol]-4′-amine]
12 | ≤ 50 nM | < 100 nM | Cc1ccccc1Sc1cnc(N2CCC3(CC2)Cn2nccc2[C@H]3N)cn1 [Example 26, (S)-1-(5-(o-tolylthio)pyrazin-2-yl)-4′H,6′H-spiro[piperidine-4,5′-pyrrolo[1,2-b]pyrazol]-4′-amine]
13 | ≤ 50 nM | < 100 nM | N[C@@H]1c2ccnn2CC12CCN(c1cnc(Sc3ccc(C(F)(F)F)c4ncccc34)cn1)CC2 [Example 67, (S)-1-(5-((8-(trifluoromethyl)quinolin-5-yl)thio)pyrazin-2-yl)-4′H,6′H-spiro[piperidine-4,5′-pyrrolo[1,2-b]pyrazol]-4′-amine]
14 | ≤ 50 nM | < 100 nM | Cc1cccc(Sc2cnc(N3CCC4(CC3)Cn3nccc3[C@H]4N)cn2)c1C [Example 47, (S)-1-(5-((2,3-dimethylphenyl)thio)pyrazin-2-yl)-4′H,6′H-spiro[piperidine-4,5′-pyrrolo[1,2-b]pyrazol]-4′-amine]
15 | ≤ 50 nM | < 100 nM | N[C@@H]1c2ccnn2CC12CCN(c1cnc(Sc3cc(F)cc(F)c3)cn1)CC2 [Example 50, (S)-1-(5-((3,5-difluorophenyl)thio)pyrazin-2-yl)-4′H,6′H-spiro[piperidine-4,5′-pyrrolo[1,2-b]pyrazol]-4′-amine]
16 | ≤ 50 nM | < 100 nM | N[C@@H]1c2ccnn2CC12CCN(c1cnc(Sc3cccc(-n4cccn4)c3F)cn1)CC2 [Example 81, (S)-1-(5-((2-fluoro-3-(1H-pyrazol-1-yl)phenyl)thio)pyrazin-2-yl)-4′H,6′H-spiro[piperidine-4,5′-pyrrolo[1,2-b]pyrazol]-4′-amine]
17 | ≤ 50 nM | < 100 nM | N[C@@H]1c2ccnn2CC12CCN(c1cnc(Sc3ccccc3Cl)cn1)CC2 [Example 63, (S)-1-(5-((2-chlorophenyl)thio)pyrazin-2-yl)-4′H,6′H-spiro[piperidine-4,5′-pyrrolo[1,2-b]pyrazol]-4′-amine]
18 | ≤ 50 nM | > 500 nM | N[C@@H]1c2ccnn2CC12CCN(c1cnc(-c3cccc(Cl)c3Cl)cn1)CC2 [Example 31, (S)-1-(5-(2,3-dichlorophenyl)pyrazin-2-yl)-4′H,6′H-spiro[piperidine-4,5′-pyrrolo[1,2-b]pyrazol]-4′-amine]
19 | ≤ 50 nM | < 100 nM | N[C@@H]1c2ccnn2CC12CCN(c1cnc(Sc3cccc4c3COC4)cn1)CC2 [Example 52, (S)-1-(5-((1,3-dihydroisobenzofuran-4-yl)thio)pyrazin-2-yl)-4′H,6′H-spiro[piperidine-4,5′-pyrrolo[1,2-b]pyrazol]-4′-amine]
20 | ≤ 50 nM | 100 to 500 nM | Cc1cc(Cl)ccc1Sc1cnc(N2CCC3(CC2)Cn2nccc2[C@H]3N)cn1 [Example 40, (S)-1-(5-((4-chloro-2-methylphenyl)thio)pyrazin-2-yl)-4′H,6′H-spiro[piperidine-4,5′-pyrrolo[1,2-b]pyrazol]-4′-amine]
